Assay results as given in article PMC8540642, “Antineoplastic Activity of Rhus trilobata Nutt. (Anacardiaceae) against Ovarian Cancer and Identification of Active Metabolites in This Pathology” (Plants, 2021).
Read-outs that look alike come from different tables or passages of the source.

Experiments:
SKOV-3 cells [1] = assay: Apoptosis (ApoTox-Glo Triplex caspase-3/7, ApoAlert DNA fragmentation/TUNEL); assay type: cell-based, human; details: 24 h, vehicle group 2.47% ± 0.4%
Method: Cells (2 × 10^4/per well) were cultivated in 96-well black plates (Corning®, Corning, NY, USA) with 100 μL of supplemented medium (Sigma®, St. Louis, MO, USA) and incubated for 24 h. Treatments on adherent cells were conducted at 5-20 μg/mL of samples/controls for 24 h. Then, ApoTox-Glo™ Triplex Assay (Promega®, Madison, WI, USA) was used to determine events of viability (proliferation), cytotoxicity (necrosis), and apoptosis (caspase-3/7 activation). Additionally, apoptosis was confirmed by an ApoAlert™ DNA Fragmentation Assay (Clontech®, Kusatsu, Shiga, J.P.). Both assays were performed according to each manufacturer’s instructions. Finally, optical density was measured in a VariosKan® Flash (Thermo-Scientific®, Waltham, MA, USA).

SKOV-3 cells [2] = assay: MTT cell viability, dose-response curves 24 h; assay type: cell-based, human; details: Homo sapiens, SK-OV-3, MTT, 24 h, read-out: IC50 (half-maximal inhibitory concentration), SKOV-3
Method: (§1) Cultures (2 × 10^4 cells/well) were seeded with 200 μL of supplemented medium (Sigma®) in 96-well plates (Corning®, Corning, NY, USA) and incubated for 24 h. Cell treatments were 5-200 μg/mL of samples/controls for 24 h. At the end of the treatments, we added MTT (5 mg/mL, Sigma®) for 4 h of incubation, and optical density was measured at λ = 590 nm in a VariosKan® Flash (Thermo-Scientific®, Waltham, MA, USA). The half-maximal inhibitory concentration (IC50) was determined.

CACO-2 cells = assay: MTT cell viability, dose-response curves 24 h; assay type: cell-based; details: Homo sapiens, Caco-2, MTT, 24 h, read-out: IC50 (half-maximal inhibitory concentration), CACO-2
Method: as §1

OVCAR-3 cells = assay: MTT cell viability, dose-response curves 24 h; assay type: cell-based; details: Homo sapiens, OVCAR-3, MTT, 24 h, read-out: IC50 (half-maximal inhibitory concentration), OVCAR-3
Method: as §1

CHO-K1 cells = assay: MTT cell viability, dose-response curves 24 h; assay type: cell-based; details: Cricetulus griseus, CHO-K1, 24 h, MTT, 24 h, read-out: IC50 (half-maximal inhibitory concentration), CHO-K1
Method: as §1

BEAS-2B cells = assay: MTT cell viability, dose-response curves 24 h; assay type: cell-based; details: Homo sapiens, BEAS-2B, MTT, read-out: IC50 (half-maximal inhibitory concentration), BEAS-2B
Method: as §1

IC50 (SKOV-3 cells [2]): 7 µg/mL | IC50 (SKOV-3 cells [2]; value in brackets): 8.2 µM | IC50 (CACO-2 cells): 20 µg/mL | IC50 (CACO-2 cells; value in brackets): 23.4 µM | IC50 (OVCAR-3 cells): 8 µg/mL | IC50 (OVCAR-3 cells; value in brackets): 9.37 µM
Structure (SMILES): CC(=O)O[C@H]1C(=O)[C@@]2(C)[C@H]([C@H](OC(=O)c3ccccc3)[C@]3(O)C[C@H](OC(=O)[C@H](O)[C@@H](NC(=O)c4ccccc4)c4ccccc4)C(C)=C1C3(C)C)[C@]1(OC(C)=O)CO[C@@H]1C[C@@H]2O [Paclitaxel, paclitaxel, reference compound]
apoptosis: caspase-3/7 activity and nuclear DNA-fragmentation (SKOV-3 cells [1]): 46.42% ± 5.0% | IC50 (CHO-K1 cells): 10 µg/mL | IC50 (CHO-K1 cells; value in brackets): 11.7 µM | IC50 (BEAS-2B cells): 8 µg/mL | IC50 (BEAS-2B cells; value in brackets): 9.37 µM
